Measured values from paper PMC8074792, “An ω-3, but Not an ω-6 Polyunsaturated Fatty Acid Decreases Membrane Dipole Potential and Stimulates Endo-Lysosomal Escape of Penetratin” (Frontiers in Cell and Developmental Biology, 2021).

How the values were obtained:
JY cells [1] = assay: Membrane dipole potential, di-8-ANEPPS excitation ratio, spectrofluorometry; format: cell-based, human; settings: fatty acid 12.5-50 μM for 48 h, result at maximal 50 μM, n = 5
Protocol: (§1) The human acute monocytic leukemia-derived cell line THP-1 and the human Epstein-Barr virus (EBV) transformed lymphoblastoid cell line JY were obtained from the American Type Culture Collection (Manassas, VA, United States) and cultivated according to their specifications. […] As controls, cells were treated with the corresponding amounts of native MβCD complexes not containing sterols. To study the effects of fatty acids, cells were incubated for 48 h in medium supplemented with saturated stearic acid (SA, Sigma Aldrich), ω-3 polyunsaturated α-linolenic acid (ALA, Sigma Aldrich) or ω-6 polyunsaturated γ-linolenic acid (GLA, Sigma Aldrich) at various concentrations ranging from 12.5 to 50 μM. […] After washing, cells were kept on ice and samples were subsequently warmed to 37°C right before measurements carried out with a Fluorolog-3 spectrofluorometer (Horiba Jobin Yvon, Edison, NJ, United States). During measurements, the cuvette holder was kept at 37°C using a circulating water bath. Excitation spectra were recorded between 380 and 550 nm with the detected emission wavelength set to 660 nm in order to minimize effects of possible changes in membrane fluidity ([Clarke and Kane, 1997]). The ratio of fluorescence intensities integrated between excitation wavelengths 410–440 nm and 490–520 nm was calculated for each sample, which positively correlates with the magnitude of DP ([Clarke and Kane, 1997]; [Kovacs et al., 2017]; [Batta et al., 2020]).

THP-1 cells [2] = assay: as above; format: cell-based, human; settings: fatty acid 12.5-50 μM for 48 h, result at maximal 50 μM, n = 5
Protocol: as §1

JY cells [3] = assay: Membrane dipole potential, F66 emission ratio, flow cytometry; format: cell-based, human; settings: 50 μM fatty acid 48 h, then 50 or 200 μM cholesterol 1 h, n = 5
Protocol: (§2) The human acute monocytic leukemia-derived cell line THP-1 and the human Epstein-Barr virus (EBV) transformed lymphoblastoid cell line JY were obtained from the American Type Culture Collection (Manassas, VA, United States) and cultivated according to their specifications. […] As controls, cells were treated with the corresponding amounts of native MβCD complexes not containing sterols. To study the effects of fatty acids, cells were incubated for 48 h in medium supplemented with saturated stearic acid (SA, Sigma Aldrich), ω-3 polyunsaturated α-linolenic acid (ALA, Sigma Aldrich) or ω-6 polyunsaturated γ-linolenic acid (GLA, Sigma Aldrich) at various concentrations ranging from 12.5 to 50 μM. […] After washing, the fluorescence intensities of cells were determined with a FACS Aria III flow cytometer (Becton Dickinson, Mountain View, CA, United States) at 37°C. […] Data analysis was carried out in FCS Express (De Novo Software, Los Angeles, CA, United States). The ratio of emitted intensities in the two wavelength ranges (N^∗/T^∗) was determined for each cell and the average value was calculated for each sample from the data of living cells gated on FSC-SSC dot plots. The value of N^∗/T^∗ ratio negatively correlates with the magnitude of DP ([Kovacs et al., 2017]).

THP-1 cells [4] = assay: as above; format: cell-based, human; settings: n = 5; for effect of fatty acid pretreatment on cholesterol-induced DP elevation (Rem, F66): 50 μM fatty acid 48 h, then 50 or 200 μM cholesterol 1 h; for Rem, F66: fatty acid 12.5-50 μM for 48 h
Protocol: as §2

JY cells [5] = assay: Membrane hydration, PY3174 generalized polarization, confocal microscopy; format: cell-based, human; settings: 200 μM sterol 1 h or 50 μM fatty acid 48 h, efficacy order 6KC > cholesterol ≥ 7DHC, effects of 7DHC and SA not statistically significant
Protocol: (§3) For these measurements, cells were labeled with 10 μM PY3174 for 20 min at room temperature. […] During processing, segmentation of images into membrane and non-membrane pixels was carried out with the manually seeded watershed algorithm using a custom-written MATLAB program as described previously ([Kovacs et al., 2017]). The average value of general polarization correlating with the degree of membrane compactness ([[…] et al., 2013]) was calculated from the data of cell membrane pixels after background subtraction using […]

THP-1 cells [6] = assay: as above; format: cell-based, human; settings: 200 μM sterol 1 h or 50 μM fatty acid 48 h, efficacy order 6KC > cholesterol ≥ 7DHC, all statistically significant
Protocol: as §3

JY cells [7] = settings: 50 μM fatty acid 48 h, LysoTracker Deep Red and 10 µM PY3174 2 h at 37°C, extent similar to cell membrane
Protocol: (§4) Measurement of hydration of lysosomal membranes with fluorescence microscopy […]
(§5) The PY3174 fluorophore capable of providing information about the hydration of the cell membrane […]
(§6) via an emission ratiometric fluorescence microscopy assay was a kind gift from Leslie M. Loew […]
(§7) (University of Connecticut, CT) (1). For these measurements, cells were placed onto an 8-well […]
(§8) chambered coverglass and labeled with 100 nM LysoTracker Deep Red (Thermo Fisher Scientific, […]
(§9) Waltham, MA) for visualization of lysosomes and 10 µM PY3174 for 2 hours at 37°C to stimulate the […]
(§10) endocytosis of the environment-sensitive fluorophore. After staining, images were taken at the […]
(§11) midplane of cells using an LSM880 confocal laser-scanning microscope (Carl Zeiss AG, Jena, […]
(§12) Germany). PY3174 was excited at 488 nm and emitted intensities were measured in two wavelength […]
(§13) ranges between 500 and 540 nm (Iblue) and 650 and 735 nm (Ired), while LysoTracker Deep Red was […]
(§14) excited at 633 nm and emission was detected between 650 and 735 nm. During processing, pixels […]
(§15) corresponding to lysosomal membranes were identified based on the intensity of LysoTracker Deep […]
(§16) Red using a custom-written algorithm under MATLAB. The average value of generalized polarization […]
(§17) (GP) correlating with the degree of membrane hydration (1) was calculated from the data of lysosomal […]
(§18) membrane pixels after background subtraction using […]
(§19) (1 picture or pasted object on this page, not shown here)

THP-1 cells [8] = settings: 50 μM fatty acid 48 h, LysoTracker Deep Red and 10 µM PY3174 2 h at 37°C, extent similar to cell membrane
Protocol: as §4, §5, §6, §7, §8, §9, §10, §11, §12, §13, §14, §15, §16, §17, §18, §19

Row | SMILES | Rexc, di-8-ANEPPS (JY cells [1]) | Rexc, di-8-ANEPPS (THP-1 cells [2]) | effect of fatty acid pretreatment on cholesterol-induced DP elevation (Rem, F66) (JY cells [3]) | effect of fatty acid pretreatment on cholesterol-induced DP elevation (Rem, F66) (THP-1 cells [4]) | Rem, F66 (THP-1 cells [4]) | PY3174 generalized polarization in the cell membrane (inversely correlates with membrane hydration) (JY cells [5]) | PY3174 generalized polarization in the cell membrane (inversely correlates with membrane hydration) (THP-1 cells [6]) | generalized polarization of PY3174 in the lysosomal membranes (JY cells [7]) | generalized polarization of PY3174 in the lysosomal membranes (THP-1 cells [8])
1 | CC/C=C\C/C=C\C/C=C\CCCCCCCC(=O)O [ALA, α-linolenic acid] | significantly decreased | significantly decreased | significantly decreased the DP-elevating effect of cholesterol | significantly decreased the DP-elevating effect of cholesterol | dose-dependently and significantly increased | reduced | reduced | decreased | decreased
2 | CCCCC/C=C\C/C=C\C/C=C\CCCCC(=O)O [GLA, γ-linolenic acid] | significant increases | significant increases | a tendency to augment the cholesterol-induced DP changes | a tendency to augment the cholesterol-induced DP changes | opposite changes | reduced | reduced | decreased | decreased
